Laboratory results reported in patent publication US10183950B2, “Thienopyrimidine inhibitors of atypical protein kinase C” (Cancer Research Technology Limited, priority 2011, dated 2019).

target: T1, full-length human PKCι (Homo sapiens, UniProt P41743); assay: PKCι IC50 IMAP fluorescence polarisation assay, full-length enzyme; assay type: biochemical; settings: full length PKCi at 15 μM ATP; read-out: IC50 in IMAP assay against full length PKCi
T1 construct: Recombinant, full-length human PKCι expressed in Sf21 insect cells is also commercially available; purchased; host or cells: Sf21 insect cells
T1 sequence (P41743 1-596): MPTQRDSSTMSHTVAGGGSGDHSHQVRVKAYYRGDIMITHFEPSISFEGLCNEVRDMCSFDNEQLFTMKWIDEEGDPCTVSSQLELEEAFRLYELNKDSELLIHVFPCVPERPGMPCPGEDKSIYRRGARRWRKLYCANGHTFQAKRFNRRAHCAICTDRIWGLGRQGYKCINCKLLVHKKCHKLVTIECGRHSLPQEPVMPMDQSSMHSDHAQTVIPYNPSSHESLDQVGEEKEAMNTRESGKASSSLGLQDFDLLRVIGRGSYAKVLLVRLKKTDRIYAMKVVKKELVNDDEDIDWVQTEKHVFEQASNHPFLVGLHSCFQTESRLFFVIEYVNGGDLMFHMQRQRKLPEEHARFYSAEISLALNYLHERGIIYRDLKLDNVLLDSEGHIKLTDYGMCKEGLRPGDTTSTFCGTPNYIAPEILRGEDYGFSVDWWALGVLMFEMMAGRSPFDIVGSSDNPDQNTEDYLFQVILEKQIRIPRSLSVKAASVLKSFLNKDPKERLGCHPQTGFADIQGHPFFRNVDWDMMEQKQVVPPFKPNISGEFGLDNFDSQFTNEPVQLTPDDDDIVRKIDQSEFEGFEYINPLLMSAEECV

Compound	IC50
N[C@H](CNc1nc(-c2ccncc2)nc2c(C#CCF)csc12)Cc1ccccc1 [compound 545, (S)-N*1*-[7-(3-Fluoro-prop-1-ynyl)-2-pyridin-4-yl-thieno[3,2-d]pyrimidin-4-yl]-3-phenyl-propane-1,2-diamine]	< 0.1 µM
Fc1cnccc1-c1nc(N[C@@H]2CCNC2)c2scc(Nc3cccnc3)c2n1 [compound 494, 2-(3-Fluoro-pyridin-4-yl)-N*7*-pyridin-3-yl-N*4*- (R)-pyrrolidin-3-yl-thieno[3,2-d]pyrimidine-4,7-diamine]	10 to 40 µM
CNCCNc1nc(-c2ccncc2)nc2c(Br)csc12 [compound 345, N-(7-Bromo-2-pyridin-4-yl-thieno[3,2-d]pyrimidin-4-yl)-N′-methyl-ethane-1,2-diamine]	1 to 10 µM
Cc1c(C#CC(C)(C)O)sc2c(N[C@@H]3CCNC3)nc(-c3ccncc3)nc12 [compound 502, 2-Methyl-4-[7-methyl-2-pyridin-4-yl-4-((R)-pyrrolidin-3-ylamino)-thieno[3,2-d]pyrimidin-6-yl]-but-3-yn-2-ol]	1 to 10 µM
N[C@H](CNc1nc(-c2ccncc2)nc2c(C#CCCF)csc12)Cc1ccccc1 [compound 546, (S)-N*1*-[7-(4-Fluoro-but-1-ynyl)-2-pyridin-4-yl-thieno[3,2-d]pyrimidine]	0.1 to 1 µM
NC(CNc1nc(-c2ccncc2F)nc2c(-c3cccnc3)csc12)Cc1ccccc1 (stereo in doubt) [compound 423, (R)-N*1*-[2-(3-Fluoro-pyridin-4-yl)-7-pyridin-3-yl-thieno[3,2-d]pyrimidin-4-yl]-3-phenyl-propane-1,2-diamine]	1 to 10 µM
COc1cccc(OCC(C)C)c1-c1c(C)sc2c(NC[C@@H](N)Cc3ccccc3)nc(-c3ccncc3)nc12 [compound 455, (S)-N*1*-[7-(2-Isobutoxy-6-methoxy-phenyl)-6-methyl-2-pyridin-4-yl-thieno[3,2-d]pyrimidin-4-yl]-3-phenyl-propane-1,2-diamine]	10 to 40 µM
c1cc(-c2nc(N[C@@H]3CCNC3)c3scc(-c4ccn[nH]4)c3n2)ccn1 [compound 403, [7-(2H-Pyrazol-3-yl)-2-pyridin-4-yl-thieno[3,2-d]pyrimidin-4-yl]-(R)-pyrrolidin-3-yl-amine]	< 0.1 µM
COCC#Cc1csc2c(NC[C@@H](N)Cc3ccccc3)nc(-c3ccncc3)nc12 [compound 400, (S)-N*1*-[7-(3-Methoxy-prop-1-ynyl)-2-pyridin-4-yl-thieno[3,2-d]pyrimidin-4-yl]-3-phenyl-propane-1,2-diamine]	< 0.1 µM
Cc1sc2c(N[C@@H]3CCNC3)nc(-c3ccncc3)nc2c1C#CC(C)(C)O [compound 503, 2-Methyl-4-[6-methyl-2-pyridin-4-yl-4-((R)-pyrrolidin-3-ylamino)-thieno[3,2-d]pyrimidin-7-yl]-but-3-yn-2-ol]	0.1 to 1 µM
N[C@H](CNc1nc(-c2ccncc2)nc2c(-c3ccc(Br)cc3)csc12)Cc1ccccc1 [compound 326, (S)-N*1*-[7-(4-Bromo-phenyl)-2-pyridin-4-yl-thieno[3,2-d]pyrimidin-4-yl]-3-phenyl-propane-1,2-diamine]	1 to 10 µM
Cc1ccc(OC(C)C)c(-c2c(C)sc3c(NC[C@@H](N)Cc4ccccc4)nc(-c4ccncc4)nc23)c1 [compound 458, (S)-N*1*-[7-(2-Isopropoxy-5-methyl-phenyl)-6-methyl-2-pyridin-4-yl-thieno[3,2-d]pyrimidin-4-yl]-3-phenyl-propane-1,2-diamine]	10 to 40 µM
N[C@H](CNc1nc(-c2ccncc2F)nc2c(Br)csc12)Cc1ccccc1 [compound 304, (S)—N*1*-[7-Bromo-2-(3-fluoro-pyridin-4-yl)-thieno[3,2-d]pyrimidin-4-yl]-3-phenyl-propane-1,2-diamine]	< 0.1 µM
NC(=O)CN1CC[C@@H](Nc2nc(-c3ccncc3)nc3ccsc23)C1 [compound 320, 2-[(R)-3-(2-Pyridin-4-yl-thieno[3,2-d]pyrimidin-4-ylamino)-pyrrolidin-1-yl]-acetamide]	10 to 40 µM
COc1cccc(Cl)c1-c1c(C)sc2c(NC[C@@H](N)Cc3ccccc3)nc(-c3ccncc3)nc12 [compound 453, (S)-N*1*-[7-(2-Chloro-6-methoxy-phenyl)-6-methyl-2-pyridin-4-yl-thieno[3,2-d]pyrimidin-4-yl]-3-phenyl-propane-1,2-diamine]	10 to 40 µM
COc1ccc(C)cc1-c1c(C)sc2c(NC[C@@H](N)Cc3ccccc3)nc(-c3ccncc3)nc12 [compound 450, (S)-N*1*-[7-(2-Methoxy-5-methyl-phenyl)-6-methyl-2-pyridin-4-yl-thieno[3,2-d]pyrimidin-4-yl]-3-phenyl-propane-1,2-diamine]	10 to 40 µM
CC(C)(O)C#Cc1csc2c(NC[C@@H](N)Cc3ccccc3)nc(-c3ccncc3F)nc12 [compound 509, 4-[4-((S)-2-Amino-3-phenyl-propylamino)-2-(3-fluoro-pyridin-4-yl)-thieno[3,2-d]pyrimidin-7-yl]-2-methyl-but-3-yn-2-ol]	0.1 to 1 µM

Next, values leading:

IC50	Compound
1 to 10 µM	c1ccc(Nc2cc(-c3nc(N[C@@H]4CCNC4)c4sccc4n3)ccn2)nc1 [compound 600, {2-[2-(Pyridin-2-ylamino)-pyridin-4-yl]-thieno[3,2-d]pyrimidin-4-yl}-(R)-pyrrolidin-3-yl-amine]
0.1 to 1 µM	c1cc(-c2nc(N[C@@H]3CCNC3)c3sccc3n2)cc(Nc2ccc(N3CCOCC3)cn2)n1 [compound 602, {2-[2-(5-Morpholin-4-yl-pyridin-2-ylamino)-pyridin-4-yl]-thieno[3,2-d]pyrimidin-4-yl}-(R)-pyrrolidin-3-yl-amine]
1 to 10 µM	c1cc(-c2nc(N[C@@H]3CCNC3)c3sccc3n2)cc(Sc2cc(-c3nc(N[C@@H]4CCNC4)c4sccc4n3)ccn2)n1 [compound 632]
0.1 to 1 µM	N#Cc1ccc(Nc2cc(-c3nc(N[C@@H]4CCNC4)c4sccc4n3)ccn2)nc1 [compound 604, 6-{4-[4-((R)-Pyrrolidin-3-ylamino)-thieno[3,2-d]pyrimidin-2-yl]-pyridin-2-ylamino}-nicotinonitrile]
0.1 to 1 µM	O=C(Nc1cc(-c2nc(N[C@@H]3CCNC3)c3sccc3n2)ccn1)c1ccc(F)cc1 [compound 618, 4-Fluoro-N-{4-[4-((R)-pyrrolidin-3-ylamino)-thieno[3,2-d]pyrimidin-2-yl]-pyridin-2-yl}-benzamide]
1 to 10 µM	Nc1csc2c(N[C@@H]3CCNC3)nc(-c3ccncc3)nc12 [compound 567, 2-Pyridin-4-yl-N*4*-(R)-pyrrolidin-3-yl-thieno[3,2-d]pyrimidine-4,7-diamine]
1 to 10 µM	c1ccc(CNc2cc(-c3nc(N[C@@H]4CCNC4)c4sccc4n3)ccn2)cc1 [compound 598, [2-(2-Benzylamino-pyridin-4-yl)-thieno[3,2-d]pyrimidin-4-yl]-(R)-pyrrolidin-3-yl-amine]
1 to 10 µM	N#Cc1cccc(Nc2cc(-c3nc(N[C@@H]4CCNC4)c4sccc4n3)ccn2)c1 [compound 606, 3-{4-[4-((R)-Pyrrolidin-3-ylamino)-thieno[3,2-d]pyrimidin-2-yl]-pyridin-2-ylamino}-benzonitrile]
10 to 40 µM	Cc1[nH]ncc1-c1nc(N[C@@H]2CCNC2)c2sccc2n1 [compound 633, [2-(5-Methyl-1H-pyrazol-4-yl)-thieno[3,2-d]pyrimidin-4-yl]-(R)-pyrrolidin-3-yl-amine]
1 to 10 µM	N[C@H](CNc1nc(-c2cc[n+]([O-])cc2)nc2c(Br)csc12)Cc1ccccc1 [compound 564, (S)—N*1*-[7-Bromo-2-(1-oxy-pyridin-4-yl)-thieno[3,2-d]pyrimidin-4-yl]-3-phenyl-propane-1,2-diamine]

same assay, conditions: full length PKCi at 15 μM ATP; read-out: IC50 in IMAP assay against full length PKCi (Activity)

Compound	IC50
N[C@H](CNc1nc(-c2ccncc2)nc2sc3c(c12)CCC1(C3)OCCO1)Cc1ccccc1 [compound 78, (S)-3-Phenyl-N*1*-*-1,4-Dioxa-spiro[7.7]-(2-pyridin-4-yl-5,6,7,8-tetrahydro-benzo[4,5]thieno[2,3-d]pyrimidin-4-yl)-propane-1,2-diamine]	1 to 10 µM
N[C@H](CNc1nc(-c2ccncc2)nc2sc3c(c12)CCCC3)Cc1ccccn1 [compound 58, (S)-3-Pyridin-2-yl-N*1*-(2-pyridin-4-yl-5,6,7,8-tetrahydro-benzo[4,5]thieno[2,3-d]pyrimidin-4-yl)-propane-1,2-diamine]	1 to 10 µM
CCC(=O)N1CCc2c(sc3nc(-c4ccncc4)nc(NCCN)c23)C1 [compound 106, 1-[4-(2-Amino-ethylamino)-2-pyridin-4-yl-5,8-dihydro-6H-pyrido[4′,3′:4,5]thieno[2,3-d]pyrimidin-7-yl]-propan-1-one]	10 to 40 µM
NCCNc1nc(-c2ccncc2)nc2sc3c(c12)CCOC3 [compound 45, N*1*-(2-Pyridin-4-yl-5,8-dihydro-6H-pyrano[4′3′:4,5]thieno[2,3-d]pyrimidin-4-yl)-ethane-1,2-diamine]	10 to 40 µM
NCCNc1nc(-c2ccncc2)nc2sc3c(c12)CCN(C(=O)c1ccccc1)C3 [compound 27, [4-(2-Amino-ethylamino)-2-pyridin-4-yl-5,8-dihydro-6H-pyrido[4′,3′:4,5]thieno[2,3-d]pyrimidin-7-yl]-phenyl-methanone]	10 to 40 µM
